Data taken from PubChem BioAssay (NCI).
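Step 1: Grow cells in 96-well plates. Step 2: Expose to compound for 48 hours at 5 concentrations. Step 3: Interpolate endpoints linearly; if unreached, use highest concentration. TGI marks complete inhibition of growth.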 Peptide text beside a SMILES is read from it. * marks the point of attachment. OSu = O=C1CCC(=O)N1O*; OBn = c1ccc(CO*)cc1; Bn = c1ccc(C*)cc1

What was measured:
Assay in all cases: inhibition of tumour cell growth, NCI panel, 48 h
SF-268 CNS = test system: SF-268 CNS
HS 578T breast = test system: HS 578T breast
DU-145 prostate = test system: DU-145 prostate
RXF 393 renal = test system: RXF 393 renal
OVCAR-4 ovarian = test system: OVCAR-4 ovarian
SK-MEL-28 melanoma = test system: SK-MEL-28 melanoma
MDA-N = test system: MDA-N
UACC-62 melanoma = test system: UACC-62 melanoma
MALME-3M melanoma = test system: MALME-3M melanoma
SK-OV-3 ovarian = test system: SK-OV-3 ovarian

Compound	TGI (SF-268 CNS)	TGI (HS 578T breast)	TGI (DU-145 prostate)	TGI (RXF 393 renal)	TGI (OVCAR-4 ovarian)	TGI (SK-MEL-28 melanoma)	TGI (MDA-N)	TGI (UACC-62 melanoma)	TGI (MALME-3M melanoma)	TGI (SK-OV-3 ovarian)
Cc1nc2sccn2c1C(=O)OCCOCCOCCOCCOC(=O)c1c(C)nc2sccn12	> 100 µM	> 100 µM	> 100 µM	> 100 µM	> 100 µM	> 100 µM	> 100 µM	> 100 µM	> 100 µM	
CCOC(=O)c1ccc(NC(NC(=O)CC)(C(F)(F)F)C(F)(F)F)cc1	> 100 µM	> 100 µM	> 100 µM	> 100 µM		> 100 µM	> 100 µM	> 100 µM	> 100 µM	> 100 µM
CC12CCC(C1)C(C)(C)C2OC(=O)c1ccccc1C(=O)O (stereo not drawn)	> 100 µM	> 100 µM	> 100 µM	> 100 µM	> 100 µM	> 100 µM	> 100 µM	> 100 µM	> 100 µM	> 100 µM
C/C(NC(=O)c1ccccc1)=C(/C(=O)c1ccccc1)[C@@H]1OC(C)(C)O[C@@H]1[C@H]1COC(C)(C)O1	> 100 µM	> 100 µM	> 100 µM	> 100 µM	> 100 µM	> 100 µM	39.1 µM	> 100 µM	> 100 µM	
CC(C)=CCC/C(C)=C/CC/C(C)=C/CSc1ccc(Cl)cc1C(=O)O	32.7 µM	49.7 µM	56 µM	44.6 µM	86.8 µM	33.9 µM	60.3 µM	34.7 µM	38.4 µM	31.1 µM
Cc1ccc(NC(=O)CC(=O)N2N=C(c3ccccc3)C(N=Nc3ccc(S(=O)(=O)CCOS(=O)(=O)O)cc3)C2=O)cc1 (stereo not drawn)	> 100 µM	> 100 µM	> 100 µM	> 100 µM		> 100 µM	> 100 µM		> 100 µM	
C=CCc1cccc2cc(C(=O)Nc3nc(C45CC6CC(CC(C6)C4)C5)cs3)c(=O)oc12	55 µM	47.9 µM	> 100 µM	22.5 µM	51.5 µM	> 100 µM	> 100 µM		> 100 µM	
C/C(=N\n1c(Cc2ccccc2)n[nH]c1=O)c1ccc([N+](=O)[O-])cc1		> 100 µM	> 100 µM	57.2 µM	> 100 µM	> 100 µM	> 100 µM	> 100 µM	> 100 µM	
O=C(CCC(=O)OCC1OC(O)(CC2OC(CO)C(O)C(O)C2O)C(O)C1O)OCc1ccccc1 (stereo not drawn)	> 100 µM	> 100 µM	> 100 µM	> 100 µM	> 100 µM	> 100 µM	> 100 µM	> 100 µM	> 100 µM	> 100 µM
Cc1ccc(CC(=O)Nc2ccc(NC(=O)CNC(=O)/C=C/c3ccc(-c4ccccc4)cc3)cc2C(=O)c2ccccc2)cc1	7.51 µM	21.1 µM	7.54 µM	6.6 µM		66.6 µM	20.9 µM	30.8 µM	12.3 µM	27.4 µM
O=C(c1ccccc1)n1[nH]c(=O)n(-c2ccc(Cl)cc2)c1=O	> 100 µM	> 100 µM	> 100 µM	> 100 µM	> 100 µM	> 100 µM	> 100 µM	> 100 µM	> 100 µM	> 100 µM
OCCNc1nc2c(N3CCCC3)nc(N3CCNCC3)nc2nc1NCc1ccccc1	34.1 µM	51.4 µM	24.2 µM	24.7 µM	32.2 µM	32.5 µM	24.7 µM	31.3 µM	35.9 µM	31.1 µM
COC1=C(OC)C(=O)C(Cc2c(Cl)nc3n2CCS3)=C(C)C1=O	41.3 µM	66.1 µM	40 µM	36.4 µM	21 µM	27.2 µM	26.8 µM	26.4 µM	21.6 µM	25.1 µM
CCCC1C(C#N)(C#N)C(C#N)=C(N)C1(C)C(C)=O (stereo not drawn)	> 100 µM	> 100 µM	> 100 µM	> 100 µM			> 100 µM	> 100 µM	> 100 µM	> 100 µM
O=C(O)C(CO)NC(=O)C1C(C(=O)O)C(c2ccccc2[N+](=O)[O-])C=C(c2ccco2)N1c1ccncc1 (stereo not drawn)	30.5 µM	57.5 µM	23.6 µM	3.12 µM	25.3 µM	22.5 µM	8.42 µM	20.3 µM	29.1 µM	29.4 µM
Cc1ccc(Nc2nc(NS(=O)(=O)c3cc(C)c(Cl)cc3S)n[nH]2)cc1	> 100 µM	> 100 µM	> 100 µM	> 100 µM	> 100 µM	> 100 µM	> 100 µM	> 100 µM	> 100 µM	> 100 µM
CCOC(=O)O/N=C1/C(c2c(O)[nH]c3ccccc23)=Nc2ccccc21	68.2 µM	51.8 µM	13.3 µM	6.16 µM	45.2 µM	41.8 µM	19.3 µM	23 µM	22.1 µM	7.07 µM
Cc1[nH]c(=O)[nH]c(=O)c1C(=O)N(CCO)Cc1ccccc1	> 100 µM	41.9 µM	> 100 µM	83.6 µM	99.7 µM	> 100 µM	> 100 µM	> 100 µM	> 100 µM	> 100 µM
CC(C)(C)OC(=O)NCCNC(=O)CN(CC(=O)O)C1CCCCC1N(CC(=O)O)CC(=O)O (stereo not drawn)	> 100 µM	> 100 µM	> 100 µM	> 100 µM	> 100 µM	> 100 µM	> 100 µM	> 100 µM	> 100 µM	> 100 µM
c1ccc2nn(C3CCCCO3)nc2c1 (stereo not drawn)	> 100 µM	> 100 µM	> 100 µM	> 100 µM	> 100 µM		> 100 µM	> 100 µM	> 100 µM	> 100 µM
Nc1ccc(-c2nc3cc(F)ccc3s2)cc1	> 100 µM	> 100 µM	> 100 µM	> 100 µM	> 100 µM	> 100 µM	> 100 µM	> 100 µM	> 100 µM	> 100 µM

Compound	TGI (SF-268 CNS)	TGI (HS 578T breast)	TGI (DU-145 prostate)	TGI (RXF 393 renal)	TGI (OVCAR-4 ovarian)	TGI (SK-MEL-28 melanoma)	TGI (MDA-N)	TGI (UACC-62 melanoma)	TGI (MALME-3M melanoma)	TGI (SK-OV-3 ovarian)
O=[N+]([O-])c1ccc(-[n+]2ccc3ccccc3c2)c([N+](=O)[O-])c1	11.9 µM	49.6 µM	27.8 µM	3.83 µM	3.04 µM	8.25 µM	6 µM	5.53 µM	9.09 µM	27.1 µM
CC(C)(C)OC(=O)N1C/C=C\C(=O)C2(OCCO2)c2ccccc21	> 100 µM	> 100 µM	81.8 µM	37.8 µM	> 100 µM	49.5 µM	48.3 µM		48.1 µM	99.2 µM
CC(=O)N1C(OCc2ccccc2)CCN1c1ccccc1 (stereo not drawn)	> 10 µM	> 10 µM	> 10 µM	> 10 µM	> 10 µM	> 10 µM	> 10 µM		> 10 µM	> 10 µM
CC(C)CC(NC(=O)C(N)CCC(=O)OCc1ccccc1)C(=O)NC(COCc1ccccc1)C(=O)NC(Cc1ccccc1)C(=O)ON1C(=O)CCC1=O (stereo not drawn) (H-E(OBn)LS(Bn)F-OSu; configuration not given here)	> 100 µM	76.1 µM	> 100 µM	78.2 µM	> 100 µM	68.6 µM	47.6 µM	70 µM	96.1 µM	87.8 µM
O=C1C(CN2CCCC2)CCCC1CN1CCCC1 (stereo not drawn)	52.3 µM	72.6 µM	34.2 µM	8.08 µM	20.3 µM	8.94 µM	19.2 µM	31.9 µM	1.27 µM	31.9 µM
Cc1nc2ccccc2cc1C[N+]12CN3CN(CN(C3)C1)C2	51 µM	> 100 µM	82.1 µM	40.4 µM	64.9 µM	45.1 µM	65.6 µM	33.1 µM	32 µM	98.9 µM
CN1CCN(c2c(O)c3c(c(O)c2Cl)C(=O)C=CC3=O)CC1	3.72 µM	5.45 µM	3.19 µM	0.602 µM	1.37 µM	2.51 µM	1.2 µM	2.82 µM	0.448 µM	8.34 µM
COc1cc([C@@H]2c3cc4c(cc3[C@@H](Nc3ccc(NC(=O)c5cc(NC(=O)c6cc([N+](=O)[O-])cn6C)cn5C)cc3)[C@H]3COC(=O)[C@H]23)OCO4)cc(OC)c1O	> 79.7 µM	> 100 µM	5.22 µM	> 62.3 µM	> 100 µM		> 100 µM	> 100 µM	> 100 µM	> 55.7 µM
COc1cnnc2c(C)c(-c3ccccc3)nn12	> 100 µM	> 100 µM	> 100 µM	> 100 µM	> 100 µM	> 100 µM	> 100 µM	> 100 µM	> 100 µM	> 100 µM
COc1cc(C2c3cc4c(cc3OC(N3CCOCC3)C2C)OCO4)cc(OC)c1OC(C)=O (stereo not drawn)	> 100 µM	25.7 µM	> 92.5 µM	> 62.1 µM	> 100 µM	> 91.6 µM	4.94 µM	> 84.5 µM	> 85.7 µM	> 100 µM
CC(C)C(/C=C/c1ccccc1)=N\NC(=S)NN	> 100 µM	> 100 µM	> 100 µM	> 100 µM	> 100 µM	> 100 µM	> 31.6 µM	> 100 µM	> 100 µM	> 100 µM
CCOC(=O)C1=CN(C(=O)c2ccccc2)CCC1Cc1ccccc1 (stereo not drawn)	> 100 µM	92.8 µM	> 100 µM	61.8 µM	> 100 µM	63.3 µM	44.4 µM	31.4 µM	68 µM	> 100 µM
CCOC(=O)/C=C(/C(=O)OCC)n1ccc(=O)[nH]c1=O	39.6 µM	37.9 µM	29 µM	13.8 µM	38.7 µM	18.4 µM	25.6 µM	25.7 µM	4.4 µM	32.9 µM
C=C1[C@H](OCC(C)C)[C@@H](OC(=O)C(C)CC)[C@@H](O)C(C)(C)/C=C/[C@H](C)C(=O)[C@@]2(O)C[C@H](C)[C@H](O)[C@@H]2[C@H]1OC(=O)C(C)CC (stereo partly drawn)	> 20 µM	10.6 µM	> 20 µM	> 20 µM	> 20 µM	> 20 µM	> 20 µM	> 20 µM	> 20 µM	> 20 µM
COC1=CCC2=C(CCN(C(=O)C3CCC3)C2Cc2ccc(OC)c(O)c2)C1 (stereo not drawn)	> 100 µM	66.6 µM	51.9 µM	21.2 µM	> 100 µM	> 100 µM	9.04 µM	> 100 µM	> 100 µM	83.5 µM
O=[N+]([O-])c1cc(Cl)ccc1S(=O)(=O)c1cc(Cl)cc2c1NCCC2	> 100 µM	> 100 µM	> 100 µM	> 100 µM	> 100 µM	> 100 µM	> 100 µM	85.8 µM	> 100 µM	> 100 µM
Cc1ccsc1/C=N/Nc1ccccn1	> 100 µM	> 100 µM	> 100 µM	> 100 µM	> 100 µM	> 100 µM	> 100 µM	> 100 µM	> 100 µM	> 100 µM
CSc1nc(=O)c(C#N)c(-c2ccccc2)n1C1OC(COC(C)=O)C(OC(C)=O)C(OC(C)=O)C1OC(C)=O (stereo not drawn)	> 100 µM	> 100 µM	> 100 µM	> 100 µM	> 100 µM	> 100 µM	> 100 µM	> 100 µM	> 100 µM	> 100 µM
CC(=O)C(C(=O)C(C)(C)C)C(=O)C(C)(C)C	> 100 µM	> 100 µM	> 100 µM	> 100 µM	> 100 µM	> 100 µM	> 100 µM	> 100 µM	> 100 µM	> 100 µM
COc1cccc(/C=N/n2c(Cc3ccc(Cl)cc3)n[nH]c2=O)c1	34.9 µM	72.7 µM	> 100 µM	11.2 µM	> 100 µM	> 100 µM	> 100 µM	> 82.9 µM	> 100 µM	81.9 µM
CC(C)(CN1CCCCC1)C(=O)/C=C/c1c(Cl)cccc1Cl	3.88 µM	8.8 µM	2.44 µM	2.39 µM	4.98 µM	3.2 µM	2.38 µM	2.61 µM	2.16 µM	8.47 µM
